Source: US20190119649A1, “METHODS FOR GENERATING AUGMENTED STEM CELL-DERIVED BETA CELLS AND USES THEREOF” (President and Fellows of Harvard College, priority 2014, published 2019)

Tests used:
[1] = test system: SC-β cells; conditions: R428 together with antioxidant N-acetylcysteine; FIG. 1A
Description: FIG. 2C is a schematic depicting an overview of an exemplary method for generating augmented SC-β cells in accordance with the present invention.
In accordance with aspects of the present invention, the period of time comprises between 7 days and 21 days. […] In accordance with aspects of the present invention, the period of time comprises 3 days, 4 days, 5 days, 6 days, 7 days, 8 days, 9 days, 10 days, 11 days, 12 days, 13 days, 14 days, 15 days, 16 days, 17 days, 18 days, 19 days, 20 days, 21 days, 22 days, 23 days, 24 days, 25 days, 26 days, 27 days, 28 days, 29 days, or 30 days or longer.

[2] = test system: SC-β cells; experiment: Glucose stimulated insulin secretion stimulation index of SC-β cells; assay type: cell-based, human; conditions: R428 together with antioxidant N-acetylcysteine; FIG. 1B and 1C
Experimental: Stimulation index=[insulin@20 mM glucose]/[insulin@2 mM glucose]. Relative Stim Index=Stim Index/Stim Index of Control.

In the case of `Nc1nc(Nc2ccc3c(c2)CC[C@@H](N2CCCC2)CC3)nn1-c1cc2c(nn1)-c1ccccc1CCC2` [Compound R428], the “MAFA gene expression relative to SC-β cells generated without AXL inhibitor and antioxidant” value [1] is reported as “increased MAFA gene expression” and the “Stimulation index ([insulin@20 mM glucose]/[insulin@2 mM glucose]) relative to SC-β cells generated without AXL inhibitor” value [2] is reported as “greater stimulation index”.
